Source: the NIST ThermoML archive (doi:10.1021/je401120a)

Test: refractive index (Na D-line) (dimensionless); xn = mol fraction of the nth substance listed
Settings: 101 kPa, Liquid, Standard Abbe refractometry

CCC[n+]1ccccc1.F[B-](F)(F)F [1-propylpyridinium tetrafluoroborate] + CO
refractive index
Settings | 293.15 K | 303.15 K | 313.15 K | 323.15 K
x1 = 0.0279 | 1.34377 | 1.3399 | 1.3361 | 1.33304
x1 = 0.0576 | 1.35657 | 1.35319 | 1.34994 | 1.34753
x1 = 0.0965 | 1.36988 | 1.36693 | 1.36409 | 1.36215
x1 = 0.1457 | 1.38283 | 1.38006 | 1.37759 | 1.37597
x1 = 0.1949 | 1.39301 | 1.3903 | 1.38806 | 1.38633
x1 = 0.2548 | 1.4028 | 1.40001 | 1.39755 | 1.39577
x1 = 0.3209 | 1.41121 | 1.40839 | 1.40578 | 1.40373
x1 = 0.3998 | 1.4189 | 1.41592 | 1.41304 | 1.41094
x1 = 0.496 | 1.42595 | 1.42315 | 1.42027 | 1.4177
x1 = 0.5983 | 1.43176 | 1.4289 | 1.42609 | 1.42341
x1 = 0.6901 | 1.43601 | 1.43321 | 1.43034 | 1.42772
x1 = 0.8007 | 1.44014 | 1.43738 | 1.43461 | 1.43193
x1 = 0.8821 | 1.44265 | 1.43997 | 1.43737 | 1.43464
x1 = 1 | 1.44588 | 1.44322 | 1.44057 | 1.43792
